The values below come from patent publication US9421187B2, “Phytocannabinoids for use in the treatment of intestinal inflammatory diseases” (GW Pharma Limited, priority 2011, dated 2016).

“Also recorded” adds a separate entry of the source.

Data set [1] concerns DNBS model of intestinal bowel disease in mice. The settings on record: cited from earlier work.
For data set [2], the system named is LPS-stimulated nitrite levels in mouse peritoneal macrophages. Description: Nitrites measurement in medium of LPS-stimulated macrophages. It is filed as cell-based. Conditions: non-cytotoxic concentrations (0.1-10 pM), 30 min pre-treatment, then LPS 1 μg/ml 18 hours, FIG. 3 and 4. On the procedure: Briefly, to evoke the production of peritoneal exudates rich in macrophages, mice were injected intraperitoneally (i.p.) with 1 ml of 10% sterile thioglycollate (Sigma, Milan, Italy). After 4 days, mice were euthanized and peritoneal macrophages were collected and seeded in appropriate plates for performing in vitro experiments.
Peritoneal macrophages were cultured in Dulbecco's modified Eagle's medium (DMEM) supplemented with 10% fetal bovine serum. […] The response in macrophages was measured after 18 h LPS incubation.
Nitrites, stable metabolites of NO, were measured in macrophages medium as previously described. Macrophages (5×10^5 cells per well seeded in a 24-well plate) were incubated with test article ([…]) for 30 min, and subsequently with LPS (1 μg/ml) for 18 hours.
The test articles were used at non-cytotoxic concentrations as a pre-treatment for 30 min before LPS-stimulation.

The subject of data set [3] is DNBS-induced colitis mice. Description: DNBS-induced colitis, body weight and colon weight/colon length ratio. It is filed as in vivo, mouse. Here is the method: (§1) Cannabigerol (CBG), cannabichromene (CBC) and tetrahydrocannabivarin (THCV) were dissolved in ethanol/Tween20/saline. Animals were placed in groups and administered with test article (60 μl per mouse) via IP once daily. Treatment started 3 days before DNBS administration for the preventative treatment experiments or 1 day after DNBS administration for the curative treatments. Test article was administered daily until the sacrifice of the animals, 3 days after DNBS treatment. THCV was only tested for a curative effect.
(§2) Colitis was induced in mice by the intra-colonic administration of DNBS. Briefly, mice were anesthetized and DNBS (8 mg/mouse) was inserted into the colon using a polyethylene catheter (1 mm in diameter) via the rectum (4.5 cm from the anus). Three days after DNBS administration, all animals were euthanized by asphyxiation with CO2. The abdomen was opened by a midline incision and the colon removed, isolated from surrounding tissues, opened along the anti-mesenteric border, rinsed, weighed, length measured, and processed for evaluations.
The colon weight/colon length ratio activity were determined as index of inflammation. Body weight was also evaluated.

Data set [4] relates to inducible nitric oxide synthase (iNOS). In words: iNOS expression in full-thickness colons by western blot, DNBS-induced colitis. Conditions: DNBS-treated mice, FIG. 11. It is filed as in vivo, mouse. Here is the method: as §1, §2
iNOS expression was measured in full-thickness colons from control and DNBS-treated mice by western blot analysis.
In general terms: In western blotting, separated proteins are transferred to a membrane and probed.

The subject of data set [5] is mouse peritoneal macrophages. In words: Cytotoxicity assays (MTT cell respiration and neutral red uptake). It is filed as cell-based. The settings on record: isolated phytocannabinoids, 24 hours incubation, highest 10 μM concentration, FIG. 1. On the procedure:
Peritoneal macrophages were obtained from mice as previously described by Rossi et al. (Rossi et al. 2010). Briefly, to evoke the production of peritoneal exudates rich in macrophages, mice were injected intraperitoneally (i.p.) with 1 ml of 10% sterile thioglycollate (Sigma, Milan, Italy). After 4 days, mice were euthanized and peritoneal macrophages were collected and seeded in appropriate plates for performing in vitro experiments.
Peritoneal macrophages were cultured in Dulbecco's modified Eagle's medium (DMEM) supplemented with 10% fetal bovine serum. The inflammatory response in peritoneal macrophages was induced by lipopolysaccharide (LPS) from Escherichia coli serotype 0111:B4 (1 μg/ml). The response in macrophages was measured after 18 h LPS incubation.
Cell viability was assessed by evaluating cell respiration as well as neutral red (NR) uptake. Cell respiration was assessed by the mitochondrial-dependent reduction of 3-(4,5-dimethylthiazol-2-yl)-2,5-diphenyltetrazolium bromide (MTT) to formazan. After incubation with one of the phytocannabinoids for 24 hours, macrophages (1×10^5 cells per well seeded in a 96-well plate) were incubated with MTT (250 μg/ml) for 1 h.
The extent of reduction of MTT to formazan was quantitated by measuring the optical density at 490 nm (iMark™ microplate assorbance reader, BioRad). […]

The mark [6] stands for this setting: post-treatment (curative), IP once daily from 1 day after DNBS.
The mark [7] stands for this setting: pre-treatment (preventative), IP once daily from 3 days before DNBS.
[8] abbreviates: treatment after induction of colitis (curative), IP once daily from 1 day after DNBS.

With `C=C(C)[C@@H]1CCC(C)=C[C@H]1c1c(O)cc(CCCCC)cc1O` [CBD, Cannabidiol], the “anti-inflammatory effect in DNBS model” value in data set [1] is on record as “anti-inflammatory effect”.
With `CCCCCc1cc(O)c(C/C=C(\C)CCC=C(C)C)c(O)c1` [CBG, Cannabigerol], in data set [2], the LPS-stimulated nitrite levels entry is recorded as “significantly reduced; also recorded: reduce LPS-stimulated nitrite production”. Moreover, the “colon weight:colon length ratio” value in data set [3] (setting [6]) and in data set [3] (setting [7]) was “significant (p<0.05) reduction” throughout. Moreover, the “body weight (decrease associated with the inflammatory response)” value in data set [3] (setting [7]) was “highly statistically significant (p<0.001) prevention of the decrease in bodyweight”; in data set [3] (setting [8]), “did however not result in a decrease in body weight”. Moreover, the “level of expression of iNOS in colonic tissues” value (shortened to “level of expression of iNOS”) in data set [4] was “statistically significantly (p<0.05) lower”.
For the compound `C=C(C)[C@@H]1CCC(C)=C[C@H]1c1c(O)cc(CCC)cc1O` [CBDV, Cannabidivarin], the LPS-stimulated nitrite levels entry in data set [2] was “reduce LPS-stimulated nitrite production”.
Take `CCCc1cc(O)c2c(c1)OC(C)(C)[C@@H]1CCC(C)=C[C@@H]21` [THCV, Tetrahydrocannabivarin]: the LPS-stimulated nitrite levels result in data set [2] is given as “significantly reduced; also recorded: reduce LPS-stimulated nitrite production”. For the same compound, the “colon weight:colon length ratio” value in data set [3] (setting [6]) was “significant (p<0.05) reduction”. Moreover, the “body weight (decrease associated with the inflammatory response)” value in data set [3] (setting [8]) is “prevention of the decrease in bodyweight that is associated with the inflammatory response, however this decrease was not statistically significant”. Also, the “cytotoxicity / cell viability” value in data set [5] is listed as “significantly reduced cell viability”. Moreover, the “level of expression of iNOS” value in data set [4] was “statistically significantly (p<0.001) lower”.
As for `CCCCCc1cc(O)c2c(c1)OC(C)(CCC=C(C)C)C=C2` (centres unmarked) [CBC, Cannabichromene], the LPS-stimulated nitrite levels entry in data set [2] is “reduce LPS-stimulated nitrite production”. Besides, the “colon weight:colon length ratio” value in data set [3] (setting [6]) is “decrease in the colon weight:length ration however this was not as statistically significant”; in data set [3] (setting [7]), “significant (p<0.05) reduction”. In addition, the results for the “body weight (decrease associated with the inflammatory response)” value in data set [3] (setting [7]) and in data set [3] (setting [8]) were “significant (p<0.05) prevention of the decrease in bodyweight” and “did not however result in a decrease in body weight”, respectively. Besides, in data set [5], the “cytotoxicity / cell viability” value is listed as “significantly reduced cell viability”. Besides, the “level of expression of iNOS” value in data set [4] is reported as “did not show a reduction”.
